Literature values in paper PMC5915681 (PLoS ONE, 2018).

Set-up: method as in PMID 24450858, PMID 24450857

## CC[C@H](Nc1ncnc2[nH]cnc12)c1nc2cccc(F)c2c(=O)n1-c1ccccc1 [idelalisib, Idelalisib]
  side effects: hepatotoxicity and gastrointestinal toxicity
